Data from article PMC4965013, “Open Source Drug Discovery with the Malaria Box Compound Collection for Neglected Diseases and Beyond” (PLoS Pathogens, 2016).

What was measured:
[1] = tested on: P. falciparum 3D7 trophozoites; assay: Metabolomic fingerprint profiling LC-MS; assay type: cell-based, Plasmodium falciparum; set-up: UDP-D-glucose / ADP-D-glucose: unit not given here; settings: for Acetyllysine / N-acetyl-L-ornithine / N-carbamoyl-L-aspartate / NADPH / dAMP / dCMP / dTDP / dTMP / dTTP / dihydroorotate / orotate / DLH / DLS/SDL/SID / PD / PEE / PVNF / 3-phosphoglycerate / ADP-D-glucose / ATP / CDP / D-sedoheptulose-1/7-phosphate / FAD / GMP / NAD+ / NADP+ / Octoluse Bisphosphate / Pyroglutamic acid / UDP-D-glucose / UDP-D-glucuronate / UDP-N-acetyl-glucosamine / UDP / UMP / UTP / a-ketoglutarate / citrate/isocitrate / cytidine / dATP / dGMP/AMP / fumarate / glucose-1/6-phosphate / glycerate / guanine / guanosine / hypoxanthine / indole / inosine / nicotinate / ornithine / phosphoenolpyruvate / pyruvate / ribose-phosphate / sarcosine/alanine / sn-glycerol-3-phosphate / succinate/methylmalonic acid / uridine / xanthosine: S2 Table Metabolomics; for Acetyllysine: metabolite Acetyllysine; for N-acetyl-L-ornithine: metabolite N-acetyl-L-ornithine; for N-carbamoyl-L-aspartate: metabolite N-carbamoyl-L-aspartate; for NADPH: metabolite NADPH; for dAMP: metabolite dAMP; for dCMP: metabolite dCMP; for dTDP: metabolite dTDP; for dTMP: metabolite dTMP; for dTTP: metabolite dTTP; for dihydroorotate: metabolite dihydroorotate; for orotate: metabolite orotate; for DLH: peptide DLH; for DLS/SDL/SID: peptide DLS/SDL/SID; for PD: peptide PD; for PEE: peptide PEE; for PVNF: peptide PVNF; for 3-phosphoglycerate: metabolite 3-phosphoglycerate; for ADP-D-glucose: metabolite ADP-D-glucose; for ATP: metabolite ATP; for CDP: metabolite CDP; for CDP / D-sedoheptulose-1/7-phosphate / GMP / Octoluse Bisphosphate / UDP / UMP / UTP / citrate/isocitrate / dGMP/AMP / fumarate / glucose-1/6-phosphate / glycerate / guanine / guanosine / inosine / pyruvate / sarcosine/alanine / succinate/methylmalonic acid / uridine / xanthosine: change in metabolite level after compound treatment; for D-sedoheptulose-1/7-phosphate: metabolite D-sedoheptulose-1/7-phosphate; for FAD: metabolite FAD; for GMP: metabolite GMP; for NAD+: metabolite NAD+; for NADP+: metabolite NADP+; for Octoluse Bisphosphate: metabolite Octoluse Bisphosphate; for Pyroglutamic acid: metabolite Pyroglutamic acid; for UDP-D-glucose: metabolite UDP-D-glucose; for UDP-D-glucuronate: metabolite UDP-D-glucuronate; for UDP-N-acetyl-glucosamine: metabolite UDP-N-acetyl-glucosamine; for UDP: metabolite UDP; for UMP: metabolite UMP; for UTP: metabolite UTP; for a-ketoglutarate: metabolite a-ketoglutarate; for citrate/isocitrate: metabolite citrate/isocitrate; for cytidine: metabolite cytidine; for dATP: metabolite dATP; for dGMP/AMP: metabolite dGMP/AMP; for fumarate: metabolite fumarate; for glucose-1/6-phosphate: metabolite glucose-1/6-phosphate; for glycerate: metabolite glycerate; for guanine: metabolite guanine; for guanosine: metabolite guanosine; for hypoxanthine: metabolite hypoxanthine; for indole: metabolite indole; for inosine: metabolite inosine; for 2_3-Diphosphoglyceric acid / 4-phosphopantothenate / 6-phospho-D-gluconate / FMN / IMP / Pyrophosphate / Sedoheptoluse bisphosphate / cyclic-AMP / glutathione disulfide / lactate / myo-inositol: metabolite level change after treatment; for nicotinate: metabolite nicotinate; for ornithine: metabolite ornithine; for phosphoenolpyruvate: metabolite phosphoenolpyruvate; for pyruvate: metabolite pyruvate; for ribose-phosphate: metabolite ribose-phosphate; for sarcosine/alanine: metabolite sarcosine/alanine; for sn-glycerol-3-phosphate: metabolite sn-glycerol-3-phosphate; for succinate/methylmalonic acid: metabolite succinate/methylmalonic acid; for uridine: metabolite uridine; for xanthosine: metabolite xanthosine
P. falciparum = assay: EC50 listed in S2 Table Metabolomics (used to set the concentration tested); assay type: cell-based; settings: Plasmodium falciparum; EC50 used for Factor_XEC50 in metabolomics; read-out: EC50_nM

`CCOC(=O)C1=C(c2ccccc2)N=c2sc(=Cc3cc(C)n(-c4ccc(F)cc4)c3C)c(=O)n2C1c1cccc(OC)c1OC` (stereo not shown) [MMV666601] was tested, and the Acetyllysine [1] was -0.456, the N-acetyl-L-ornithine [1] was -0.1781 and the N-carbamoyl-L-aspartate [1] was 0.03088. For the same molecule, the NADPH [1] was 0.275, the dAMP [1] was -0.2186 and the dCMP [1] was 0.01598. For the same molecule, the dTDP [1] was -0.2912, the dTMP [1] was -0.2825 and the dTTP [1] was -0.02615. For the same molecule, the dihydroorotate [1] was 0.05127, the orotate [1] was -0.2921 and the DLH [1] was -0.04885. The DLS/SDL/SID [1] was -0.07047, the PD [1] was -0.02012 and the PEE [1] was -0.1327. The PVNF [1] was -0.1227, the 3-phosphoglycerate [1] was 0.04151 and the ADP-D-glucose [1] was -0.1367. It also gave an ATP [1] of 0.1113, a CDP [1] of -0.2732 and a D-sedoheptulose-1/7-phosphate [1] of -0.3701. For the same molecule, the FAD [1] was 0.009316, the GMP [1] was 0.1751 and the “NAD+” value [1] was 0.04978. For the same molecule, the “NADP+” value [1] was -0.07076, the “Octoluse Bisphosphate” value [1] was -0.0546 and the Pyroglutamic acid [1] was 0.2145. For the same molecule, the UDP-D-glucose [1] was -0.01836, the UDP-D-glucuronate [1] was -0.09865 and the UDP-N-acetyl-glucosamine [1] was -0.01529. For the same molecule, the UDP [1] was -0.3315, the UMP [1] was 0.1049 and the UTP [1] was 0.1938. The a-ketoglutarate [1] was 0.0362, the citrate/isocitrate [1] was 0.4989 and the cytidine [1] was 0.1663. It also gave a dATP [1] of 0.2724, a dGMP/AMP [1] of -0.3927 and a fumarate [1] of -0.02339. For the same molecule, the glucose-1/6-phosphate [1] was -0.02704, the glycerate [1] was 0.006669 and the guanine [1] was -0.1817. For the same molecule, the guanosine [1] was -0.06753, the hypoxanthine [1] was 0.09643 and the indole [1] was 0.007804. For the same molecule, the inosine [1] was 0, the 2_3-Diphosphoglyceric acid [1] was -0.2012 and the 4-phosphopantothenate [1] was -0.1061. It also gave a 6-phospho-D-gluconate [1] of 0.004224, an FMN [1] of -0.01347 and an IMP [1] of -0.1927. It also gave a Pyrophosphate [1] of -0.04369, a Sedoheptoluse bisphosphate [1] of -0.08738 and a cyclic-AMP [1] of 0.1818. It also gave a glutathione disulfide [1] of -0.01346, a lactate [1] of -0.02544 and a myo-inositol [1] of -0.1142. For the same molecule, the nicotinate [1] was 0.07511, the ornithine [1] was -0.266 and the phosphoenolpyruvate [1] was -0.02402. The pyruvate [1] was -0.028, the ribose-phosphate [1] was 0.1121 and the sarcosine/alanine [1] was -0.3168. The sn-glycerol-3-phosphate [1] was -0.06233, the succinate/methylmalonic acid [1] was 0.1961 and the uridine [1] was -0.1775. For the same molecule, the xanthosine [1] was 0.2404 and the EC50 (P. falciparum) was 154 nM.

In the case of `COc1cccc(NC(=O)[C@H](C(C)C)n2c(=O)[nH]c3ccccc3c2=O)c1` [MMV665878], the Acetyllysine [1] is reported as -3.834, the N-acetyl-L-ornithine [1] is reported as -2.277 and the N-carbamoyl-L-aspartate [1] is reported as -2.026. For the same molecule, the NADPH [1] was -0.665, the dAMP [1] was 2.607 and the dCMP [1] was 1.538. It also gave a dTDP [1] of 2.818, a dTMP [1] of 4.246 and a dTTP [1] of 1.03. It also gave a dihydroorotate [1] of -1.926, an orotate [1] of 0.2146 and a DLH [1] of -4.819. For the same molecule, the DLS/SDL/SID [1] was -3.927, the PD [1] was -1.32 and the PEE [1] was -2.783. For the same molecule, the PVNF [1] was -5.1424, the 3-phosphoglycerate [1] was -0.5747 and the ADP-D-glucose [1] was -0.6055. The ATP [1] was -2.891, the CDP [1] was 0.1584 and the D-sedoheptulose-1/7-phosphate [1] was -0.5795. The FAD [1] was -1.328, the GMP [1] was -2.538 and the “NAD+” value [1] was 0.9896. The “NADP+” value [1] was -0.2932, the “Octoluse Bisphosphate” value [1] was -2.487 and the Pyroglutamic acid [1] was -0.4358. For the same molecule, the UDP-D-glucose [1] was -0.03487, the UDP-D-glucuronate [1] was -0.6105 and the UDP-N-acetyl-glucosamine [1] was 0.07778. It also gave a UDP [1] of -0.1367, a UMP [1] of 0.1216 and a UTP [1] of -1.546. For the same molecule, the a-ketoglutarate [1] was -0.5207, the citrate/isocitrate [1] was -1.159 and the cytidine [1] was 0.1724. For the same molecule, the dATP [1] was -1.5606, the dGMP/AMP [1] was -1.273 and the fumarate [1] was 0.3725. It also gave a glucose-1/6-phosphate [1] of -0.9191, a glycerate [1] of 0.3692 and a guanine [1] of -0.09985. For the same molecule, the guanosine [1] was -0.2889, the hypoxanthine [1] was -0.3925 and the indole [1] was -0.3292. The inosine [1] was -0.04266, the 2_3-Diphosphoglyceric acid [1] was -1.256 and the 4-phosphopantothenate [1] was -0.4545. It also gave a 6-phospho-D-gluconate [1] of -0.4297, an FMN [1] of -0.3548 and an IMP [1] of -0.5176. The Pyrophosphate [1] was -1.335, the Sedoheptoluse bisphosphate [1] was -0.9263 and the cyclic-AMP [1] was -1.127. The glutathione disulfide [1] was -0.2446, the lactate [1] was -1.397 and the myo-inositol [1] was -0.3766. It also gave a nicotinate [1] of 0.2929, an ornithine [1] of 0.191 and a phosphoenolpyruvate [1] of -0.242. For the same molecule, the pyruvate [1] was -1.851, the ribose-phosphate [1] was -0.6091 and the sarcosine/alanine [1] was -1.666. It also gave a sn-glycerol-3-phosphate [1] of 0.02823, a succinate/methylmalonic acid [1] of 0.3592 and a uridine [1] of 0.5173. For the same molecule, the xanthosine [1] was -1.769 and the EC50 (P. falciparum) was 139 nM.
